{"source": "patent US4721713A", "about": "“Process for inhibiting blood platelet aggregation and promoting vasodilation” (Toyo Jozo Kabushiki Kaisha, priority 1986, dated 1988)", "key": {"[1]": {"system": "platelet aggregation in platelet-rich rabbit plasma", "experiment": "Inhibitory effect on blood platelet aggregation, effect in vitro (ADP-induced)", "assay_type": "cell-based", "conditions": "for inhibition at 100 µM: Oryctolagus cuniculus, Platelet, 0.05 h, read-out: Inhibition Ratio on Platelet Aggregation (Mean ± S.E)", "protocol": "An aggregating agent, adenosine-5'-diphosphate (final concentration 2.5 μM), was added thereto and the platelet aggregating potential was measured with an aggregometer."}, "[2]": {"system": "blood flow in left hind leg", "experiment": "Vasodilating activity upon intra-arterial administration (perfused left hind leg)", "assay_type": "in vivo, Mongrel dogs", "conditions": "for Vasodilating Activity (relative to blood flow increase by papaverine 30 μg as 100%): 100 μg, i.a., mean ± S.E. for 3 animals", "protocol": "Mongrel dogs anesthetized with urethane (450 mg/kg iv) and α-chlora-lose (45 mg/kg iv) after pretreatment with morphine (1.5 mg/kg, sc) were secured in a supine position. Blood from the right femoral artery was introduced into the left femoral artery through a circulation pump and the left hind leg was perfused under constant pressure by connection with a Starling's resistance in an exosomatic circulatory system. The prefusion pressure was set slightly higher than the mean blood pressure of each animal and the change in blood flow upon intra-arterial injection of the test compound was determined. The results, showing specific activity as compared with a value indicating the degree of increase in the amount of blood flow by papaverine (30 μg, iv) as 100%, are shown in Table 4."}, "[3]": {"system": "number of platelets in the circulating blood", "experiment": "Effect in vivo: number of platelets in circulating blood after E. coli lipopolysaccharide", "parameters": "species or system Male Wistar rats", "conditions": "for Number of Platelets, Exp. 1 / Number of Platelets, Exp. 2: ratio pre- and post-administration, LPS 5 mg/kg i.p., 3 hours", "protocol": "Male Wistar rats, five animals in a group, were administered per orally the agents to be tested. After one hour, E. coli lipopolysaccharide (5 mg/kg) was injected intraperitoneally and 3 hours thereafter blood samples were collected and measured as to the number of platelets in the circulating blood to determine the ratio of platelets pre- and post-administration of the agents. The tests were repeated twice."}, "[4]": {"system": "experimental disseminated intravascular coagulation", "experiment": "Effect on disseminated intravascular coagulation (E. coli lipopolysaccharide infusion)", "assay_type": "in vivo, Male Wistar rats", "conditions": "100 mg/kg p.o.", "protocol": "Male Wistar rats, seven animals in a group, were administered per orally the agents (100 mg/kg) to be tested. After one hour, E. coli lipopolysaccharide (50 mg/kg) was continuously injected intravenously for four hours. A control group was given physiological saline intravenously under the same conditions.\nBlood was collected immediately after finishing the injection to measure the number of platelets, the activated partial thromboplastin time, the prothrombin time and the amount of fibrinogen. In the control group, in which E. coli lipopolysaccharide was injected, a marked decrease in the number of platelets and the amount of fibrinogen and a marked prolongation of the activated partial thromboplastin time and the prothrombin time are observed."}, "[5]": {"system": "arterial blood flow (vertebral, coronary, renal, femoral)", "experiment": "Vasodilating activity upon intravenous administration (regional arterial blood flow)", "assay_type": "in vivo, mongrel dog", "conditions": "FIG. 1", "from_the_text": "A cuff-type probe for measuring blood flow was applied to the left vertebral artery, the left anterior descending coronary artery, the left renal artery and the right femoral artery of a mongrel dog anesthetized in the same way as hereinabove and the blood flow was continuously measured. The blood pressure was monitored by a pressure transducer connected to a cannula inserted into the left femoral artery, and the heart rate was monitored through a tachometer by triggering the R-wave of lead II of an electrocardiograph. The agent to be tested was injected into the left venous cephalica. The results are shown in FIG. 1, in which the ordinate indicates the response ratio and the abscissa indicates dosages by intravenous administration, and in which"}, "anoxia": {"system": "anoxia", "experiment": "Protective effect against anoxia", "assay_type": "in vivo, Male ddY strain mice", "conditions": "for Survival Time: 200 mg/kg p.o., mean ± S.E.", "protocol": "The present compound and a control were administered per orally 30 or 60 mins. before the test."}, "PAF-induced shock": {"system": "PAF-induced shock", "experiment": "Effect against platelet activated factor (PAF)-induced shock", "assay_type": "in vivo, Male ddY strain mice", "conditions": "100 mg/kg p.o.", "protocol": "Male ddY strain mice, male, 10 animals in a group, were administered per orally the compound of the present invention (100 mg/kg), and after one hour PAF (60 μg/kg) was administered intravenously to determine the ratio of mortality."}, "Acute toxicity in mice": {"experiment": "Acute toxicity in mice", "assay_type": "in vivo", "conditions": "mouse, in vivo"}, "mice": {"system": "mice", "experiment": "Acute toxicity in mice", "assay_type": "in vivo", "conditions": "intravenous 100 mg/kg"}, "Acute toxicity in rats": {"experiment": "Acute toxicity in rats", "assay_type": "in vivo, male Wister rats", "conditions": "rat, in vivo; oral, rats"}, "rats": {"system": "rats", "experiment": "Acute toxicity in rats", "assay_type": "in vivo, male Wister rats"}, "[6]": {"system": "L5178Y murine lymphoblastoma", "experiment": "Cytotoxicity", "assay_type": "cell-based", "conditions": "37° C. for 18 hours", "protocol": "To L5178Y murine lymphoblastoma (2×10^4 cells/ml) suspended in a medium (27 ml) comprising Fischer's culture medium including 10% bovine serum, were added test agents in solution (0.3 ml) diluted with a culture medium and the material was incubated at 37° C. for 18 hours. Growth of the cells was determined by color change. Growth inhibition of the cells was not observed at any concentration of 20 μg/ml and 100 μg/ml of the compound of the present invention, and so no cytotoxicity was observed."}, "[7]": {"system": "microorganism strains TA100, TA1535, WP2 uvr A, TA98, TA1537 and TA1538", "experiment": "Mutagenicity, backward mutation test", "assay_type": "cell-based", "protocol": "A backward mutation test using microorganism strains TA100, TA1535, WP2 uvr A, TA98, TA1537 and TA1538 was performed by the method according to Iyer et al. [N. Y. Iyer and W. Szybalski, Appl. Microbiol., 6: 37 (1958)]. The test agents were tenfold diluted in six stages of concentration of 0.00333-333 μg/disc."}, "[8]": {"conditions": "final concentration 100 μM, ADP 2.5 μM"}, "[9]": {"conditions": "final concentration 100 μM, ADP 2.5 μM, 37° C. for 3 minutes"}, "[10]": {"conditions": "LPS 50 mg/kg i.v. over four hours"}, "[11]": {"conditions": "PAF 60 μg/kg i.v. after one hour"}}, "note": "Read-outs that look alike come from different tables or passages of the source."}
{"smiles": "CC(=O)Oc1ccccc1C(=O)O", "note": "[Acetyl salicylic acid, acetyl salicylic acid]", "values": [{"measurement": "inhibition at 100 µM", "setting": "[1]", "result": "-0.6 ± 0.6", "unit": "%"}, {"measurement": "Inhibitory effect on blood platelet aggregation (in words)", "setting": "[1]; [8]", "result": "no inhibitory effect"}]}
{"smiles": "Cc1nc(C)c(C)nc1C", "note": "[Tetramethylpyrazine, tetramethylpyrazine]", "values": [{"measurement": "inhibition at 100 µM", "setting": "[1]; [9]", "result": "3 ± 1.6", "unit": "%"}, {"measurement": "Inhibitory effect on blood platelet aggregation (in words)", "setting": "[1]; [8]", "result": "no inhibitory effect"}, {"measurement": "Vasodilating Activity (relative to blood flow increase by papaverine 30 μg as 100%)", "setting": "[2]", "result": "19.3 ± 0.9", "unit": "%"}]}
{"smiles": "Cc1nc(O)c(C(C)C)nc1C.Cl", "note": "[Present compound, 2-hydroxy-3-isopropyl-5,6-dimethylpyrazine hydrochloride]", "values": [{"measurement": "inhibition at 100 µM", "setting": "[1]; [9]", "result": "69.6 ± 5.4", "unit": "%"}, {"measurement": "Inhibitory effect on blood platelet aggregation (in words)", "setting": "[1]; [8]", "result": "distinct inhibitory effect"}, {"measurement": "Number of Platelets, Exp. 1", "setting": "[3]; 100 mg/kg p.o.", "result": "58.2 ± 7.8", "unit": "%"}, {"measurement": "Number of Platelets, Exp. 2", "setting": "[3]; 100 mg/kg p.o.", "result": "55.9 ± 14.0", "unit": "%"}, {"measurement": "Effect on decrease of platelet number (in words)", "setting": "[3]; 100 mg/kg per orally, compared with ticlopidine 200 mg/kg oral", "result": "inhibits the decrease of platelet number, which is comparable to an oral dose of 200 mg/kg ticlopidine"}, {"measurement": "Activated Partial Thromboplastin Time", "setting": "[4]; [10]", "result": "48.5 ± 7.4", "unit": "s"}, {"measurement": "Fibrinogen", "setting": "[4]; [10]", "result": "77.2 ± 13.1", "unit": "mg/dL"}, {"measurement": "Platelet Number", "setting": "[4]; [10]", "result": "177 ± 51 × 10^3 /mm^3"}, {"measurement": "Prothrombin Time", "setting": "[4]; [10]", "result": "14.3 ± 1.4", "unit": "s"}, {"measurement": "Effect against all the factors tested (in words)", "setting": "[4]; experimental disseminated intravascular coagulation", "result": "significant effect against all the factors tested"}, {"measurement": "Vasodilating Activity (relative to blood flow increase by papaverine 30 μg as 100%)", "setting": "[2]", "result": "100.7 ± 19.1", "unit": "%"}, {"measurement": "Vasodilating activity compared with tetramethylpyrazine (in words)", "setting": "[2]; intra-arterial", "result": "markedly stronger vasodilating activity than that of the control drug, tetramethylpyrazine"}, {"measurement": "Coronary arterial blood flow (in words)", "setting": "[5]", "result": "increases blood flow in the vertebral artery, in the coronary artery"}, {"measurement": "Femoral arterial blood flow (in words)", "setting": "[5]", "result": "increases blood flow in the vertebral artery, in the coronary artery and in the femoral artery"}, {"measurement": "Renal arterial blood flow (in words)", "setting": "[5]", "result": "does not affect the renal arterial blood flow"}, {"measurement": "Selectivity for vertebral and coronary arterial blood flow (in words)", "setting": "[5]", "result": "Selective effects on the vertebral arterial blood flow and the coronary arterial blood flow"}, {"measurement": "Vertebral arterial blood flow (in words)", "setting": "[5]", "result": "increases blood flow in the vertebral artery"}, {"measurement": "Survival Time", "setting": "anoxia; pretreatment time 30 min.", "result": "42.7 ± 1.6", "unit": "s"}, {"measurement": "Survival Time", "setting": "anoxia; pretreatment time 60 min.", "result": "48.1 ± 1.9", "unit": "s"}, {"measurement": "Survival time (in words)", "setting": "anoxia; pretreatment per orally", "result": "Significant prolongation of survival time"}, {"measurement": "Action against PAF-induced shock (in words)", "setting": "PAF-induced shock", "result": "protective action"}, {"measurement": "Mortality, Experiment 1", "setting": "PAF-induced shock; [11]", "result": "1/10"}, {"measurement": "Mortality, Experiment 2", "setting": "PAF-induced shock; [11]", "result": "3/10"}, {"measurement": "LD50", "setting": "Acute toxicity in mice; intravenous, read-out: LD50", "result": "~200", "unit": "mg/kg"}, {"measurement": "LD50", "setting": "Acute toxicity in mice; oral, read-out: LD50 oral", "result": 555, "unit": "mg/kg"}, {"measurement": "Death", "setting": "mice", "result": "no death was observed"}, {"measurement": "LD50", "setting": "Acute toxicity in rats", "result": 903, "unit": "mg/kg"}, {"measurement": "Death", "setting": "rats; intravenous 50 mg/kg, rats", "result": "no death was observed"}, {"measurement": "Dose attainable due to the solubility of the compound", "setting": "rats; rat, in vivo, iv", "result": "up to 50 mg/kg"}, {"measurement": "Growth inhibition of the cells", "setting": "[6]; 20 μg/ml", "result": "not observed"}, {"measurement": "Growth inhibition of the cells", "setting": "[6]; 100 μg/ml", "result": "not observed"}, {"measurement": "Mutagenesis", "setting": "[7]; 0.00333-333 μg/disc, any concentration", "result": "No mutagenesis was found"}, {"measurement": "Mutagenesis under metabolic activation", "setting": "[7]; metabolic activation using an S-9 mixture", "result": "no mutagenesis was observed"}]}
{"smiles": "Clc1ccccc1CN1CCc2sccc2C1", "note": "[Ticlopidine, ticlopidine, reference compound]", "values": [{"measurement": "inhibition at 100 µM", "setting": "[1]; [9]", "result": "-1.2 ± 1.2", "unit": "%"}, {"measurement": "Inhibitory effect on blood platelet aggregation (in words)", "setting": "[1]; [8]", "result": "no inhibitory effect"}, {"measurement": "Number of Platelets, Exp. 1", "setting": "[3]; 200 mg/kg p.o.", "result": "57.9 ± 12.0", "unit": "%"}, {"measurement": "Number of Platelets, Exp. 2", "setting": "[3]; 200 mg/kg p.o.", "result": "63.4 ± 19.4", "unit": "%"}]}
